# According to patent US11814367B2, “Inhibitors of glycogen synthase 1 (GYS1) and methods of use thereof” (Maze Therapeutics, Inc., priority 2021, dated 2023):
# pIC50: −log10 of the molar value.
# Key:
# [1] = target: hGYS1 enzyme (recombinant hGYS1/GN1 protein) (Homo sapiens (Human), UniProt P13807); experiment: GYS1 coupled enzyme assay (PK/LDH); type: biochemical; details: hGYS1/GN1 50 nM, UDP-Glucose 0.8 mM, G6P 1 mM; geometric mean of at least 2 runs
# [2] = target: hGYS2 enzyme (recombinant hGYS2/GN1 protein) (Homo sapiens (Human), UniProt P54840); experiment: GYS2 coupled enzyme assay (PK/LDH); type: biochemical; details: geometric mean of at least 2 assay runs on separate days, read-out: Avg_IC50
# hGYS2 enzyme (recombinant hGYS2/GN1 protein), sequence (P54840 whole entry): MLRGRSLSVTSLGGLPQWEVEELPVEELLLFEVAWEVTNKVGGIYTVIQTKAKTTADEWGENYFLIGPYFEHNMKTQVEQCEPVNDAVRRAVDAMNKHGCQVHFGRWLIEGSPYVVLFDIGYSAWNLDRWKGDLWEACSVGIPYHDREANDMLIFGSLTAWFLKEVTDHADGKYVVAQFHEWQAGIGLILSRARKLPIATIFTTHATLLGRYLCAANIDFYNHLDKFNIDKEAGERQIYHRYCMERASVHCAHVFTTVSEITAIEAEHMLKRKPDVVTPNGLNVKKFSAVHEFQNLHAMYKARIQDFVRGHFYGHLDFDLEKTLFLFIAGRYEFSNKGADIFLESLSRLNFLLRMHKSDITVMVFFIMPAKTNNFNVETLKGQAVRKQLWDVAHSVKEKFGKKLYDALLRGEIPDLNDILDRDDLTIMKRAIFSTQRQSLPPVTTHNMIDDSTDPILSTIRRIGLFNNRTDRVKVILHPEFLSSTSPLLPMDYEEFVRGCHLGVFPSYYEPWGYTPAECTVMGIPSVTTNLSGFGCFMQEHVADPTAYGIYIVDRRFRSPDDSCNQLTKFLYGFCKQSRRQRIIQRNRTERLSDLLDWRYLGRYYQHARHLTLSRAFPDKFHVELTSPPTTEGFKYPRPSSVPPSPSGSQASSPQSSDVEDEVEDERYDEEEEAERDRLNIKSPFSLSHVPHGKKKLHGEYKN
# hGYS2 enzyme (recombinant hGYS2/GN1 protein), sequence (P46976 whole entry partner): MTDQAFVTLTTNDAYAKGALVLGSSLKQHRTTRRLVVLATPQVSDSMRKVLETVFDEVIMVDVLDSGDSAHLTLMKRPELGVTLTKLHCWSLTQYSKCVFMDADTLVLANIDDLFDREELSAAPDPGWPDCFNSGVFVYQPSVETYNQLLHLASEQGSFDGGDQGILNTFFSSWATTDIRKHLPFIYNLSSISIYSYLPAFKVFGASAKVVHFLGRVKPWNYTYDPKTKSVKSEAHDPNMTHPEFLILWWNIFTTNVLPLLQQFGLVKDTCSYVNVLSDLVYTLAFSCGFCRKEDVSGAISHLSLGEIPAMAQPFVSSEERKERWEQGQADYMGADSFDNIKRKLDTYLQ
# How it was run: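 Continuous PK/LDH-coupled readout of NADH loss at 340 nm over 10 min, with 200 nM hGYS2/GN1 and 2 mM each of UDP-glucose, glucose-6-phosphate and PEP, in 50 mM Tris pH 7.5 with 0.2% glycogen and 2.5% DMSO. Slopes were normalized to controls and IC50s fit to a Hill curve from duplicates.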
# hGYS1 enzyme (recombinant hGYS1/GN1 protein), sequence (P13807 whole entry): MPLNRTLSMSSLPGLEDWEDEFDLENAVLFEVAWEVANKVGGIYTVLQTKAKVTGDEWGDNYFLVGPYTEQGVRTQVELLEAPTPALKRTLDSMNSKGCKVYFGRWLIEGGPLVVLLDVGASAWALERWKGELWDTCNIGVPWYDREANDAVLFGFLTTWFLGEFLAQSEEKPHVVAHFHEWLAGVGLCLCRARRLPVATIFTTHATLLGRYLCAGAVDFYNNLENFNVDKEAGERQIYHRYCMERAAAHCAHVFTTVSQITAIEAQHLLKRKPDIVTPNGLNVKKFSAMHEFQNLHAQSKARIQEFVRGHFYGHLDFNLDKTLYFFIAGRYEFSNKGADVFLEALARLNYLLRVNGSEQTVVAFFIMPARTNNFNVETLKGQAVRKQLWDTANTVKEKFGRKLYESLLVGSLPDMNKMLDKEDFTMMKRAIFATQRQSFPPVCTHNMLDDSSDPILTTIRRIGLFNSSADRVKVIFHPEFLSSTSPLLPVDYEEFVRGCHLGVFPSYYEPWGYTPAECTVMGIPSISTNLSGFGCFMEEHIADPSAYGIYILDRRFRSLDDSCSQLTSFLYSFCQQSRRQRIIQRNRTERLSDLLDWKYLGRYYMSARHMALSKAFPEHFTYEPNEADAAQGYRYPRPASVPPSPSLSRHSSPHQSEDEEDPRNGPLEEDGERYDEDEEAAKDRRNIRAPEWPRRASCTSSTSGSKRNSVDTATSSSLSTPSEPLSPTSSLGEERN
# hGYS1 enzyme (recombinant hGYS1/GN1 protein), sequence (P46976 whole entry partner): as the sequence (P46976 whole entry partner) above
SMILES,pIC50 [1],pIC50 [2]
"COc1ccc(CC(=O)N2C[C@H](F)C[C@H]2C(=O)N[C@@H](c2ccccc2)c2ccc(C(C)C)cc2)c(C#N)c1 [Compound 133, (2S,4R)-1-[2-(2-cyano-4-methoxyphenyl)acetyl]-4-fluoro-N-[(S)-phenyl[4-(propan-2-yl)phenyl]methyl]pyrrolidine-2-carboxamide]",8.00,< 4.00
"CC(C)c1ccc([C@@H](NC(=O)[C@@H]2C[C@@H](F)CN2C(=O)CCc2cnc3[nH]ccc3c2)c2ccccc2)cc1 [Compound 134, (2S,4R)-4-fluoro-N-[(S)-phenyl[4-(propan-2-yl)phenyl]methyl]-1-(3-{1H-pyrrolo[2,3-b]pyridin-5-yl}propanoyl)pyrrolidine-2-carboxamide]",7.39,< 4.00
"COc1cccnc1CCC(=O)N1C[C@H](F)C[C@H]1C(=O)N[C@@H](c1ccccc1)c1ccc(C(C)C)cc1 [Compound 135, (2S,4R)-4-fluoro-1-[3-(3-methoxypyridin-2-yl)propanoyl]-N-[(S)-phenyl[4-(propan-2-yl)phenyl]methyl]pyrrolidine-2-carboxamide]",7.36,< 4.00
"CC(C)c1ccc([C@@H](NC(=O)[C@@H]2C[C@@H](F)CN2C(=O)Cc2cc3ccccc3n2C)c2ccccc2)cc1 [Compound 137, (2S,4R)-4-fluoro-1-[2-(1-methyl-1H-indol-2-yl)acetyl]-N-[(S)-phenyl[4-(propan-2-yl)phenyl]methyl]pyrrolidine-2-carboxamide]",7.77,< 4.00
"CC(=O)N1CC[C@@H](C(=O)N2C[C@H](F)C[C@H]2C(=O)N[C@@H](c2ccccc2)c2ccc(C(C)C)cc2)[C@@H]1c1cccnc1 [Compound 140, (2S,4R)-1-[(2R,3R)-1-acetyl-2-(pyridin-3-yl)pyrrolidine-3-carbonyl]-4-fluoro-N-[(S)-phenyl[4-(propan-2-yl)phenyl]methyl]pyrrolidine-2-carboxamide]",7.17,< 4.00
"CC(=O)N1CCOC(C(=O)N2C[C@H](F)C[C@H]2C(=O)N[C@@H](c2ccccc2)c2ccc(C(C)C)cc2)C1 (stereo partly drawn) [Compound 141, (2S,4R)-1-(4-acetylmorpholine-2-carbonyl)-4-fluoro-N-[(S)-phenyl[4-(propan-2-yl)phenyl]methyl]pyrrolidine-2-carboxamide]",6.74,< 4.00
"CC(=O)N(C)CC(=O)N1C[C@H](F)C[C@H]1C(=O)N[C@@H](c1ccccc1)c1ccc(C(C)C)cc1 [Compound 142, (2S,4R)-4-fluoro-1-[2-(N-methylacetamido)acetyl]-N-[(S)-phenyl[4-(propan-2-yl)phenyl]methyl]pyrrolidine-2-carboxamide]",7.11,< 4.00
"CC(=O)N1CCC(C(=O)N2C[C@H](F)C[C@H]2C(=O)N[C@@H](c2ccccc2)c2ccc(C(C)C)cc2)CC1 [Compound 144, (2S,4R)-1-(1-acetylpiperidine-4-carbonyl)-4-fluoro-N-[(S)-phenyl[4-(propan-2-yl)phenyl]methyl]pyrrolidine-2-carboxamide]",6.77,< 4.00
"CC(=O)N1CC(C)(C(=O)N2C[C@H](F)C[C@H]2C(=O)N[C@@H](c2ccccc2)c2ccc(C(C)C)cc2)C1 [Compound 146, (2S,4R)-1-(1-acetyl-3-methylazetidine-3-carbonyl)-4-fluoro-N-[(S)-phenyl[4-(propan-2-yl)phenyl]methyl]pyrrolidine-2-carboxamide]",6.69,< 4.00
"CC(=O)N1CCC(C(=O)N2C[C@H](F)C[C@H]2C(=O)N[C@@H](c2ccccc2)c2ccc(C(C)C)cc2)C1 (stereo partly drawn) [Compound 147, (2S,4R)-1-(1-acetylpyrrolidine-3-carbonyl)-4-fluoro-N-[(S)-phenyl[4-(propan-2-yl)phenyl]methyl]pyrrolidine-2-carboxamide]",6.90,< 4.00
